Measurements from PubChem BioAssay AID1745844 (Carcinogenic Potency Database (CPDB), 2022).
The source made the active and inactive calls. No rule for the calls is given here.

Test system: rodent lifetime carcinogenesis bioassay, tumor incidence TD50
Assay: carcinogenic potency in animals, long-term in vivo studies, CPDB compilation (AID 1745844)

Question: With `OC(Cn1cncn1)(Cn1cncn1)c1ccc(F)cc1F` as the compound, how does the carcinogen call (mouse, strain Charles River CD1, females, in feed, site: any site (literature study), lesion: several types, types named in the paper, dosed 104 weeks, study length 104 weeks) read?
Answer: negative (inactive)

Question: And the TD50 (mouse, strain Charles River CD1, females, in feed, site: liver, lesion: hepatocellular adenoma, dosed 104 weeks, study length 104 weeks)?
Answer: 129 mg/kg/day (inactive)

Question: And the carcinogen call (mouse, strain Charles River CD1, females, in feed, site: liver, lesion: hepatocellular carcinoma, dosed 104 weeks, study length 104 weeks)?
Answer: negative (inactive)

Question: What about the TD50 (mouse, strain Charles River CD1, males, in feed, site: any site (literature study), lesion: several types, types named in the paper, dosed 104 weeks, study length 104 weeks) of the same compound?
Answer: 239 mg/kg/day (inactive)

Question: What about the TD50 (mouse, strain Charles River CD1, males, in feed, site: liver, lesion: hepatocellular adenoma, dosed 104 weeks, study length 104 weeks) of the same compound?
Answer: 144 mg/kg/day (inactive)

Question: What about the carcinogen call (mouse, strain Charles River CD1, males, in feed, site: liver, lesion: hepatocellular carcinoma, dosed 104 weeks, study length 104 weeks) of the same compound?
Answer: negative (inactive)

Question: What about the carcinogen call (rat, strain Charles River CD (Sprague-Dawley), females, in feed, site: any site (literature study), lesion: several types, types named in the paper, dosed 104 weeks, study length 104 weeks) of the same compound?
Answer: negative (inactive)

Question: What about the TD50 (rat, strain Charles River CD (Sprague-Dawley), females, in feed, site: liver, lesion: hepatocellular adenoma, dosed 104 weeks, study length 104 weeks) of the same compound?
Answer: 298 mg/kg/day (inactive)

Question: And the carcinogen call (rat, strain Charles River CD (Sprague-Dawley), females, in feed, site: liver, lesion: hepatocellular carcinoma, dosed 104 weeks, study length 104 weeks)?
Answer: negative (inactive)

Question: And the TD50 (rat, strain Charles River CD (Sprague-Dawley), females, in feed, site: mammary gland, lesion: adenoma, dosed 104 weeks, study length 104 weeks)?
Answer: 412 mg/kg/day (inactive)

Question: What about the carcinogen call (rat, strain Charles River CD (Sprague-Dawley), females, in feed, site: mammary gland, lesion: carcinoma, dosed 104 weeks, study length 104 weeks) of the same compound?
Answer: negative (inactive)

Question: And the carcinogen call (rat, strain Charles River CD (Sprague-Dawley), females, in feed, site: mammary gland, lesion: fibroadenoma, dosed 104 weeks, study length 104 weeks)?
Answer: negative (inactive)

Question: And the carcinogen call (rat, strain Charles River CD (Sprague-Dawley), females, in feed, site: mammary gland, lesion: several types, types named in the paper, dosed 104 weeks, study length 104 weeks)?
Answer: negative (inactive)

Question: What about the carcinogen call (rat, strain Charles River CD (Sprague-Dawley), males, in feed, site: adrenal medulla, lesion: pheochromocytoma, dosed 104 weeks, study length 104 weeks) of the same compound?
Answer: negative (inactive)

Question: And the carcinogen call (rat, strain Charles River CD (Sprague-Dawley), males, in feed, site: any site (literature study), lesion: several types, types named in the paper, dosed 104 weeks, study length 104 weeks)?
Answer: negative (inactive)

Question: What about the TD50 (rat, strain Charles River CD (Sprague-Dawley), males, in feed, site: liver, lesion: hepatocellular adenoma, dosed 104 weeks, study length 104 weeks) of the same compound?
Answer: 80.7 mg/kg/day

Question: With `Cc1cccc2cccnc12` as the compound, how does the carcinogen call (rat, strain Fischer 344, females, in feed, site: liver, lesion: hyperplastic nodule, dosed 104 weeks, study length 104 weeks) read?
Answer: negative (inactive)

Question: And the carcinogen call (rat, strain Fischer 344, males, in feed, site: liver, lesion: hyperplastic nodule, dosed 104 weeks, study length 104 weeks)?
Answer: negative (inactive)

Question: Which TD50 (rat, strain F344/DuCrj, males, in drinking water, site: oral cavity, lesion: squamous-cell carcinoma, dosed 116 weeks, study length 116 weeks) does the source give for `N#[N+]c1cc(CCN)ccc1[O-]` here?
Answer: 37.6 mg/kg/day

Question: Which TD50 (rat, strain F344/DuCrj, males, in drinking water, site: liver, lesion: hyperplastic nodule, dosed 106 weeks, study length 112 weeks) does the source give for `CCCCN(CCCCO)N=O` here?
Answer: 0.169 mg/kg/day

Question: What about the TD50 (rat, strain F344/DuCrj, males, in drinking water, site: urinary bladder, lesion: papilloma, dosed 106 weeks, study length 112 weeks) of the same compound?
Answer: 0.447 mg/kg/day

Question: What about the TD50 (rat, strain F344/DuCrj, males, in drinking water, site: urinary bladder, lesion: transitional-cell carcinoma, dosed 106 weeks, study length 112 weeks) of the same compound?
Answer: 0.432 mg/kg/day

Question: What about the carcinogen call (rat, strain Fischer 344, females, in feed, site: urinary bladder, lesion: carcinoma, dosed 103 weeks, study length 103 weeks) of the same compound?
Answer: positive

Question: And the TD50 (rat, strain Fischer 344, males, in drinking water, site: testis, lesion: Leydig-cell tumor, dosed 78 weeks, study length 78 weeks)?
Answer: 0.386 mg/kg/day

Question: What about the TD50 (rat, strain Fischer 344, males, in drinking water, site: urinary bladder, lesion: transitional-cell carcinoma, dosed 78 weeks, study length 78 weeks) of the same compound?
Answer: 0.175 mg/kg/day

Question: And the TD50 (rat, strain Fischer 344, males, in feed, site: liver, lesion: hepatocellular carcinoma, dosed 103 weeks, study length 103 weeks)?
Answer: 185 mg/kg/day

Question: And the TD50 (rat, strain Fischer 344, males, in feed, site: urinary bladder, lesion: carcinoma, dosed 103 weeks, study length 103 weeks)?
Answer: 0.549 mg/kg/day

Question: And the TD50 (rat, strain Sprague-Dawley, males, by gavage, site: lung, lesion: carcinoma, dosed 39 weeks, study length 74 weeks)?
Answer: 166 mg/kg/day

Question: What about the TD50 (rat, strain Sprague-Dawley, males, by gavage, site: urinary bladder, lesion: several types, types named in the paper, dosed 39 weeks, study length 74 weeks) of the same compound?
Answer: 1.17 mg/kg/day

Question: What about the TD50 (rat, strain Sprague-Dawley, males, in drinking water, site: liver, lesion: liver-cell carcinoma, dosed 104 weeks, study length 104 weeks) of the same compound?
Answer: 271 mg/kg/day

Question: And the TD50 (rat, strain Sprague-Dawley, males, in drinking water, site: urinary bladder, lesion: carcinoma, dosed 104 weeks, study length 104 weeks)?
Answer: 3.3 mg/kg/day

Question: What does the source list for `CCN(N=O)C(=O)NCCO`?
Answer: TD50 (hamster, strain Syrian Golden, females, by gavage, site: cervix uteri, lesion: one or several types, types not named, dosed 30 weeks, study length 75 weeks): 1.04 mg/kg/day; TD50 (hamster, strain Syrian Golden, females, by gavage, site: forestomach, lesion: benign tumor, dosed 30 weeks, study length 75 weeks): 1.76 mg/kg/day; TD50 (hamster, strain Syrian Golden, females, by gavage, site: liver, lesion: cholangioma, dosed 30 weeks, study length 75 weeks): 27.5 mg/kg/day; TD50 (hamster, strain Syrian Golden, females, by gavage, site: spleen, lesion: all vascular tumors, dosed 30 weeks, study length 75 weeks): 3.05 mg/kg/day; TD50 (rat, strain Fischer 344, females, in drinking water, site: mammary tissue, wider than the gland, lesion: carcinoma, dosed 30 weeks, study length 104 weeks): 0.748 mg/kg/day; TD50 (rat, strain Fischer 344, females, in drinking water, site: nervous system, lesion: one or several types, types not named, dosed 30 weeks, study length 104 weeks): 0.714 mg/kg/day; TD50 (rat, strain Fischer 344, females, in drinking water, site: skin, lesion: one or several types, types not named, dosed 30 weeks, study length 104 weeks): 0.956 mg/kg/day; TD50 (rat, strain Fischer 344, females, in drinking water, site: uterus, lesion: one or several types, types not named, dosed 30 weeks, study length 104 weeks): 0.972 mg/kg/day; TD50 (rat, strain Fischer 344, males, in drinking water, site: lung, lesion: one or several types, types not named, dosed 30 weeks, study length 104 weeks): 0.39 mg/kg/day; TD50 (rat, strain Fischer 344, males, in drinking water, site: nervous system, lesion: one or several types, types not named, dosed 30 weeks, study length 104 weeks): 0.769 mg/kg/day; TD50 (rat, strain Fischer 344, males, in drinking water, site: skin, lesion: one or several types, types not named, dosed 30 weeks, study length 104 weeks): 0.401 mg/kg/day; TD50 (rat, strain Fischer 344, males, in drinking water, site: tunica vaginalis, lesion: mesothelioma, dosed 30 weeks, study length 104 weeks): 0.226 mg/kg/day

Question: How did the TD50 (rat, strain ACI, males, i.p., site: any site (literature study), lesion: several types, types named in the paper, dosed 56 weeks, study length 92 weeks) turn out when `C/C=C(\C)C(=O)O[C@@H]1CCN2CC=C(COC(=O)[C@](O)(C(C)C)[C@H](C)O)[C@H]12` was run?
Answer: 4.5 mg/kg/day

Question: What about the TD50 (rat, strain ACI, males, i.p., site: liver, lesion: several types, types named in the paper, dosed 56 weeks, study length 92 weeks) of the same compound?
Answer: 1.91 mg/kg/day

Question: How did the TD50 (rat, strain Fischer 344, males, in feed, site: Zymbal's gland, lesion: one or several types, types not named, dosed 104 weeks, study length 104 weeks) turn out when `O=C(O)c1cc(=O)[nH]c(=O)[nH]1` was run?
Answer: 2600 mg/kg/day

Question: And the TD50 (rat, strain Fischer 344, males, in feed, site: all sites, lesion: leukemia, dosed 104 weeks, study length 104 weeks)?
Answer: 1690 mg/kg/day

Question: What about the TD50 (rat, strain Fischer 344, males, in feed, site: liver, lesion: hepatocellular adenoma, dosed 52 weeks, study length 52 weeks) of the same compound?
Answer: 925 mg/kg/day

Question: And the TD50 (rat, strain Fischer 344, males, in feed, site: liver, lesion: hepatocellular adenoma, dosed 104 weeks, study length 104 weeks)?
Answer: 395 mg/kg/day
